From patent publication US6482990B1, “Prostaglandin E analogues” (Taisho Pharmaceutical Co., Ltd., priority 1999, dated 2002)

System: human vascular smooth muscle cells
Assay: DNA synthesis inhibition activity (3H-thymidine intake) in human vascular smooth muscle cells
Type: cell-based
Conditions: for IC50: vascular cells derived from normal human aorta, 24 hours culture with 3H-thymidine, test compound as ethanol solution, compared with vehicle-treated control; for inhibiting activity on the growth of human vascular smooth muscle cells: conclusion in words from Table 2
Procedure: Determination of DNA synthesis inhibition activity of PGE1 analogs to human vascular smooth muscle cells
On a 24 well-plate (manufactured by Corning Co.), 1×10^4 cells/well of quintic culture cells of vascular cells derived from normal human aorta (produced by Kurabo Co.) were inoculated and cultured for 2 days. The medium was exchanged from the growth medium (SG2: produced by Kurabo Co.) to the basal medium (SB2: produced by Kurabo Co.), and cultured for 24 hours, to which was added the growth medium (SG2) containing an ethanol solution of the test compound. ^3H-thymidine (produced by Daiichi Chemicals Co.) was added in an amount of 0.01 mci/well and, after culturing for 24 hours, the cultured supernatant was removed by suction, followed by washing with a phosphate buffer solution (PBS).
5% Trichloroacetic acid (TCA) was added and, after allowing to stand at 4° C. for 20 minutes, the mixture was washed once with TCA. The mixture was washed with PBS, and dissolved in 0.5 N KOH. Intake of ^3H-thymidine was determined using 20 μl of KOH dissolving the cells which incorporated ^3H-thymidine in the nucleus by means of a liquid scintillation counter (manufactured by Hewlett-Packard Co.).

| Compound | IC50 [µM] | inhibiting activity on the growth of human vascular smooth muscle cells |
| --- | --- | --- |
| COC(=O)/C=C/CCCCC1C(=O)CC(O)C1C#CC(O)CCc1ccccc1 (centres unmarked) [Comparative Compound, (2E)-18,19,20-Trinor-17-phenyl-2,3,13,14-tetradehydro-PGE1 methyl ester, reference compound] | 4.36 |  |
| O=C1CC(O)C(C=CC(O)CCc2ccccc2)C1CCCc1ccc(C(F)(F)F)cc1 (centres unmarked) [Compound 18, 2-Decarboxy-2,3,4,18,19,20-hexanor-5-(4-trifluoromethylphenyl)-17-phenyl-PGE1] | 0.66 | high inhibiting activity |
| Cc1ccc(CCCC2C(=O)CC(O)C2C=CC(O)CCc2ccccc2)cc1 (centres unmarked) [Compound 29, 2-Decarboxy-2,3,4,18,19,20-hexanor-5-(4-methylphenyl)-17-phenyl-PGE1] | 0.73 | high inhibiting activity |
